Experimental data: PubChem BioAssay (NCI)
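GI50 = concentration required for 50% inhibition of growth. TGI denotes the concentration required for complete inhibition of growth.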

Columns and labels:
Test in all cases: NCI tumour cell line growth inhibition, 384-well format
CAKI-1 renal = system: CAKI-1 renal
LOX IMVI melanoma = system: LOX IMVI melanoma
M14 melanoma = system: M14 melanoma
MALME-3M melanoma = system: MALME-3M melanoma
DU-145 prostate = system: DU-145 prostate
A498 renal = system: A498 renal
MDA-MB-468 breast = system: MDA-MB-468 breast
MCF7 breast = system: MCF7 breast
HL-60(TB) leukemia = system: HL-60(TB) leukemia
HT29 colon = system: HT29 colon
NCI-H322M lung = system: NCI-H322M lung
NCI-H23 lung = system: NCI-H23 lung
RPMI-8226 leukemia = system: RPMI-8226 leukemia
MDA-MB-231 breast = system: MDA-MB-231 breast
SNB-19 CNS = system: SNB-19 CNS
RXF 393 renal = system: RXF 393 renal
SK-OV-3 ovarian = system: SK-OV-3 ovarian
NCI-H226 lung = system: NCI-H226 lung
UACC-257 melanoma = system: UACC-257 melanoma
UO-31 renal = system: UO-31 renal
U251 glioblastoma = system: U251 glioblastoma
NCI-H460 NSCLC = system: NCI-H460 NSCLC
SN12C renal = system: SN12C renal
HCT-116 colon = system: HCT-116 colon
OVCAR-4 ovarian = system: OVCAR-4 ovarian
SF-295 CNS = system: SF-295 CNS
HOP-62 NSCLC = system: HOP-62 NSCLC
SK-MEL-28 melanoma = system: SK-MEL-28 melanoma
NCI-H522 lung = system: NCI-H522 lung
SF-268 CNS = system: SF-268 CNS
OVCAR-8 ovarian = system: OVCAR-8 ovarian
SK-MEL-5 melanoma = system: SK-MEL-5 melanoma
UACC-62 melanoma = system: UACC-62 melanoma
PC-3 prostate = system: PC-3 prostate
MDA-MB-435 melanoma = system: MDA-MB-435 melanoma
HOP-92 NSCLC = system: HOP-92 NSCLC
COLO 205 colon = system: COLO 205 colon
SR leukemia = system: SR leukemia
HCC-2998 colon = system: HCC-2998 colon
OVCAR-5 ovarian = system: OVCAR-5 ovarian
MOLT-4 leukemia = system: MOLT-4 leukemia
ACHN renal = system: ACHN renal
786-0 renal = system: 786-0 renal
SF-539 CNS = system: SF-539 CNS
EKVX NSCLC = system: EKVX NSCLC
HS 578T breast = system: HS 578T breast
SNB-75 CNS = system: SNB-75 CNS
BT-549 breast = system: BT-549 breast
TK-10 renal = system: TK-10 renal
HCT-15 colon = system: HCT-15 colon
KM12 colon = system: KM12 colon
A549 NSCLC = system: A549 NSCLC
T-47D breast = system: T-47D breast
NCI/ADR-RES ovarian = system: NCI/ADR-RES ovarian
IGROV1 ovarian = system: IGROV1 ovarian
SW-620 colon = system: SW-620 colon
OVCAR-3 ovarian = system: OVCAR-3 ovarian
K-562 leukemia = system: K-562 leukemia
CCRF-CEM leukemia = system: CCRF-CEM leukemia

## Cc1ccc(-c2cc(C(F)(F)F)nn2-c2ccc(S(N)(=O)=O)cc2)cc1
CAKI-1 renal
  GI50: 16.8 µM
  TGI: 30.5 µM
LOX IMVI melanoma
  GI50: 17.6 µM
  TGI: 31.4 µM
M14 melanoma
  GI50: 19 µM
  TGI: 33.1 µM
MALME-3M melanoma
  GI50: 16.2 µM
  TGI: 29.8 µM
DU-145 prostate
  GI50: 15 µM
  TGI: 28.2 µM
A498 renal
  GI50: 15.6 µM
  TGI: 28.9 µM
MDA-MB-468 breast
  GI50: 13.6 µM
  TGI: 26.5 µM
MCF7 breast
  GI50: 14.2 µM
  TGI: 27.2 µM
HL-60(TB) leukemia
  GI50: 20.5 µM
  TGI: 34.8 µM
HT29 colon
  GI50: 16.1 µM
  TGI: 29.6 µM
NCI-H322M lung
  GI50: 15.9 µM
  TGI: 29.4 µM
NCI-H23 lung
  GI50: 15.6 µM
  TGI: 29 µM
RPMI-8226 leukemia
  GI50: 12.1 µM
  TGI: 24.5 µM
MDA-MB-231 breast
  GI50: 15.7 µM
  TGI: 29.2 µM
SNB-19 CNS
  GI50: 16.6 µM
  TGI: 30.4 µM
RXF 393 renal
  GI50: 14.4 µM
  TGI: 27.4 µM
SK-OV-3 ovarian
  GI50: 17.1 µM
  TGI: 30.9 µM
NCI-H226 lung
  GI50: 13 µM
  TGI: 25.6 µM
UACC-257 melanoma
  GI50: 16.6 µM
  TGI: 30.3 µM
UO-31 renal
  GI50: 14.7 µM
  TGI: 27.9 µM
U251 glioblastoma
  GI50: 16 µM
  TGI: 29.5 µM
NCI-H460 NSCLC
  GI50: 15.3 µM
  TGI: 28.7 µM
SN12C renal
  GI50: 15.2 µM
  TGI: 28.6 µM
HCT-116 colon
  GI50: 15.2 µM
  TGI: 28.5 µM
OVCAR-4 ovarian
  GI50: 11.8 µM
  TGI: 24.1 µM
SF-295 CNS
  GI50: 16.5 µM
  TGI: 30.1 µM
HOP-62 NSCLC
  GI50: 15.3 µM
  TGI: 28.6 µM
SK-MEL-28 melanoma
  GI50: 17.6 µM
  TGI: 31.4 µM
NCI-H522 lung
  GI50: 13.6 µM
  TGI: 26.5 µM
SF-268 CNS
  GI50: 16.4 µM
  TGI: 30 µM
OVCAR-8 ovarian
  GI50: 15.6 µM
  TGI: 28.9 µM
SK-MEL-5 melanoma
  GI50: 13.8 µM
  TGI: 26.7 µM
UACC-62 melanoma
  GI50: 18.4 µM
  TGI: 32.4 µM
PC-3 prostate
  GI50: 14.6 µM
  TGI: 27.8 µM
MDA-MB-435 melanoma
  GI50: 19.3 µM
  TGI: 33.4 µM
HOP-92 NSCLC
  GI50: 16 µM
  TGI: 29.4 µM
COLO 205 colon
  GI50: 16.2 µM
  TGI: 29.7 µM
SR leukemia
  GI50: 29 µM
  TGI: 43.8 µM
HCC-2998 colon
  GI50: 14.9 µM
  TGI: 28.1 µM
OVCAR-5 ovarian
  GI50: 16.2 µM
  TGI: 29.7 µM
MOLT-4 leukemia
  GI50: 9.05 µM
  TGI: 21.3 µM
ACHN renal
  GI50: 15.1 µM
  TGI: 28.3 µM
786-0 renal
  GI50: 14.1 µM
  TGI: 27.4 µM
SF-539 CNS
  GI50: 16.7 µM
  TGI: 30.4 µM
EKVX NSCLC
  GI50: 14.2 µM
  TGI: 27.2 µM
HS 578T breast
  GI50: 14.5 µM
  TGI: 27.7 µM
SNB-75 CNS
  GI50: 10.8 µM
  TGI: 23 µM
BT-549 breast
  GI50: 15.9 µM
  TGI: 29.3 µM
TK-10 renal
  GI50: 16.7 µM
  TGI: 30.4 µM
HCT-15 colon
  GI50: 14.7 µM
  TGI: 27.9 µM
KM12 colon
  GI50: 15.8 µM
  TGI: 29.2 µM
A549 NSCLC
  GI50: 14.4 µM
  TGI: 27.5 µM
T-47D breast
  GI50: 11.4 µM
  TGI: 23.7 µM
NCI/ADR-RES ovarian
  GI50: 15.7 µM
  TGI: 29.1 µM
IGROV1 ovarian
  GI50: 16.3 µM
  TGI: 29.8 µM
SW-620 colon
  GI50: 17.1 µM
  TGI: 30.9 µM
OVCAR-3 ovarian
  GI50: 14.3 µM
  TGI: 27.4 µM

## O=C1Nc2c(C(F)(F)F)cccc2[C@@]1(c1ccc(O)cc1)c1ccc(OC(F)(F)F)cc1
CAKI-1 renal
  GI50: 12.9 µM
  TGI: 25.5 µM
LOX IMVI melanoma
  GI50: 0.0118 µM
  TGI: 0.0263 µM
M14 melanoma
  GI50: 3.36 µM
  TGI: 17.2 µM
MALME-3M melanoma
  GI50: 8.37 µM
  TGI: 20.8 µM
DU-145 prostate
  GI50: 0.0313 µM
  TGI: 0.102 µM
A498 renal
  GI50: 0.022 µM
  TGI: 0.0619 µM
MDA-MB-468 breast
  GI50: < 0.01 µM
  TGI: < 0.01 µM
MCF7 breast
  GI50: 0.0121 µM
  TGI: 0.0622 µM
HL-60(TB) leukemia
  GI50: 2.14 µM
  TGI: 3.78 µM
HT29 colon
  GI50: 12.9 µM
  TGI: 25.7 µM
NCI-H322M lung
  GI50: < 0.01 µM
  TGI: < 0.01 µM
NCI-H23 lung
  GI50: < 0.01 µM
  TGI: 0.0113 µM
K-562 leukemia
  GI50: 0.974 µM
  TGI: 17.7 µM
RPMI-8226 leukemia
  GI50: 3.03 µM
  TGI: 9.54 µM
MDA-MB-231 breast
  GI50: 3.86 µM
  TGI: 18.9 µM
SNB-19 CNS
  GI50: 13.2 µM
  TGI: 26 µM
RXF 393 renal
  GI50: < 0.01 µM
  TGI: < 0.01 µM
SK-OV-3 ovarian
  GI50: 0.0584 µM
  TGI: 13.8 µM
NCI-H226 lung
  GI50: 0.0108 µM
  TGI: 0.0276 µM
CCRF-CEM leukemia
  GI50: 12.8 µM
  TGI: 25.5 µM
UACC-257 melanoma
  GI50: 12 µM
  TGI: 24.4 µM
UO-31 renal
  GI50: 0.0151 µM
  TGI: 0.0288 µM
U251 glioblastoma
  GI50: 14.9 µM
  TGI: 28.2 µM
NCI-H460 NSCLC
  GI50: 13.7 µM
  TGI: 27.1 µM
SN12C renal
  GI50: < 0.01 µM
  TGI: 0.0211 µM
HCT-116 colon
  GI50: 0.0252 µM
  TGI: 16.9 µM
OVCAR-4 ovarian
  GI50: < 0.01 µM
  TGI: < 0.01 µM
SF-295 CNS
  GI50: 0.0212 µM
  TGI: 0.0759 µM
SK-MEL-28 melanoma
  GI50: 12.4 µM
  TGI: 24.9 µM
SF-268 CNS
  GI50: 2.01 µM
  TGI: 18.1 µM
OVCAR-8 ovarian
  GI50: < 0.01 µM
  TGI: < 0.01 µM
SK-MEL-5 melanoma
  GI50: 10.9 µM
  TGI: 22.9 µM
UACC-62 melanoma
  GI50: 0.0331 µM
  TGI: 5.96 µM
PC-3 prostate
  GI50: 0.0123 µM
  TGI: 0.0363 µM
MDA-MB-435 melanoma
  GI50: 8.62 µM
  TGI: 20.9 µM
HOP-92 NSCLC
  GI50: 0.0443 µM
  TGI: 20.6 µM
COLO 205 colon
  GI50: < 0.01 µM
  TGI: < 0.01 µM
SR leukemia
  GI50: 2.04 µM
  TGI: 4.15 µM
HCC-2998 colon
  GI50: < 0.01 µM
  TGI: 0.0415 µM
OVCAR-5 ovarian
  GI50: 0.0503 µM
  TGI: 20.4 µM
MOLT-4 leukemia
  GI50: 10.4 µM
  TGI: 22.2 µM
ACHN renal
  GI50: 0.0203 µM
  TGI: 0.047 µM
786-0 renal
  GI50: 15.3 µM
  TGI: 28.7 µM
SF-539 CNS
  GI50: 1.6 µM
  TGI: 13.7 µM
EKVX NSCLC
  GI50: 0.017 µM
  TGI: 0.0551 µM
HS 578T breast
  GI50: < 0.01 µM
  TGI: < 0.01 µM
SNB-75 CNS
  GI50: < 0.01 µM
  TGI: < 0.01 µM
BT-549 breast
  GI50: < 0.01 µM
  TGI: < 0.01 µM
TK-10 renal
  GI50: < 0.01 µM
  TGI: < 0.01 µM
HCT-15 colon
  GI50: 0.0186 µM
  TGI: 15.2 µM
KM12 colon
  GI50: 0.0145 µM
  TGI: 1.13 µM
A549 NSCLC
  GI50: 0.0341 µM
  TGI: 0.148 µM
T-47D breast
  GI50: < 0.01 µM
  TGI: < 0.01 µM
NCI/ADR-RES ovarian
  GI50: < 0.01 µM
  TGI: 0.0228 µM
SW-620 colon
  GI50: 7.09 µM
  TGI: 19.4 µM
OVCAR-3 ovarian
  GI50: < 0.01 µM
  TGI: 0.017 µM
